Our source for the melting point values is patent US20070027143A1, “Novel substituted 2,3-benzodiazepine derivatives” (priority 2003, published 2007).

The structures appear in SMILES notation.

In general, melting point refers to the temperature of the solid-liquid transition.

As for `CC1=Cc2cc3c(cc2C(c2ccc(N)cc2)=NN1c1ncon1)OCO3.Cl`, the melting point was 124 to 126 °C. For the molecule `Cc1nnc(N2N=C(c3ccc(N)cc3)c3cc4c(cc3C[C@H]2C)OCO4)s1` (hydrate or solvate) [Example 86, (R)-5-(4-Aminophenyl)-8-methyl-7-(5-methyl-1,3,4-thiadiazol-2-yl)-8,9-dihydro-7H-1,3-dioxolo-[4,5-h][2,3]benzodiazepine], the melting point lay within 168 to 170 °C. Consider `CC1Cc2cc3c(cc2C(c2ccc(N)cc2)=NN1c1nncs1)OCO3` (racemic) (hydrate or solvate) [Example 83, (±)-5-(4-Aminophenyl)-8-methyl-7-(1,3,4-thiadiazol-2-yl)-8,9-dihydro-7H-1,3-dioxolo-[4,5-h][2,3]benzodiazepine], for which the melting point was 192 to 194 °C.

`CC1Cc2cc3c(cc2C(c2ccc(N)cc2)=NN1c1nnc(-c2ccccc2)s1)OCO3` (racemic) (hydrate or solvate) [Example 91, (±)-5-(4-Aminophenyl)-7-(5-phenyl-1,3,4-thiadiazol-2-yl)-8-methyl-8,9-dihydro-7H-1,3-dioxolo-[4,5-h][2,3]benzodiazepine]: the melting point is 228 to 230 °C. In the case of `CC(=O)Nc1ccc(C2=NN(c3nc(C)cs3)C(C)Cc3cc4c(cc32)OCO4)cc1` (racemic) (hydrate or solvate) [Example 121, (±)-5-(4-Acetylaminophenyl)-8-methyl-7-(4-methyl-thiazol-2-yl)-8,9-dihydro-7H-1,3-dioxolo-[4,5-h][2,3]benzodiazepine], the melting point lay within 236 to 238 °C.

Consider `CCc1nnc(N2N=C(c3ccc([N+](=O)[O-])cc3)c3cc4c(cc3CC2C)OCO4)s1` (racemic) [Example 30, (±)-7-(5-Ethyl-1,3,4-thiadiazol-2-yl)-8-methyl-5-(4-nitrophenyl) 8,9-dihydro-7H-1,3-dioxolo[4,5-h][2,3]benzodiazepine], for which the melting point lay within 163 to 164 °C. To `CC1Cc2cc3c(cc2C(c2ccc([N+](=O)[O-])cc2)=NN1c1nnc(-c2ccccc2)s1)OCO3` (racemic) [Example 33, (±)-8-Methyl-5-(4-nitrophenyl)-7-(5-phenyl-1,3,4-thiadiazol-2-yl)-8,9-dihydro-7H-1,3-dioxolo[4,5-h][2,3]benzodiazepine] belongs 210 to 212 °C; to `CC1Cc2cc3c(cc2C(c2ccc([N+](=O)[O-])cc2)=NN1c1nnc(CCl)s1)OCO3` (racemic) [Example 34, (±)-7-(5-Chloromethyl-1,3,4-thiadiazol-2-yl)-8-methyl-5-(4-nitrophenyl)-8,9-dihydro-7H-1,3-dioxolo[4,5-h][2,3]benzodiazepine], 210 to 211 °C; to `CC1Cc2cc3c(cc2C(c2ccc([N+](=O)[O-])cc2)=NN1c1nc(=O)n(C2CC2)s1)OCO3` (racemic) [Example 47, (±)-7-(2-Cyclopropyl-3-oxo-2,3-dihydro-1,2,4-thiadiazol-5-yl)-8-methyl-5-(4-nitrophenyl)-8,9-dihydro-7H-1,3-dioxolo[4,5-h][2,3]benzodiazepine], 246 to 247 °C.

In the case of `CC1Cc2cc3c(cc2C(c2ccc(N)cc2)=NN1c1nccs1)OCO3` (racemic) [Example 60, (±)-5-(4-Aminophenyl)-8-methyl-7-(2-thiazolyl)-8,9-dihydro-7H-1,3-dioxolo[4,5-h][2,3]benzodiazepine], the melting point was 187 to 190 °C. Regarding `Cc1csc(N2N=C(c3ccc(N)cc3)c3cc4c(cc3CC2C)OCO4)n1` (racemic) [Example 63, (±)-5-(4-Aminophenyl)-8-methyl-7-(4-methyl-thiazol-2-yl)-8,9-dihydro-7H-1,3-dioxolo-[4,5-h][2,3]benzodiazepine], the melting point was in the range of 190 to 191 °C. Take `Cc1cnc(N2N=C(c3ccc(N)cc3)c3cc4c(cc3CC2C)OCO4)s1` (racemic) [Example 64, (±)-5-(4-Aminophenyl)-8-methyl-7-(5-methyl-thiazol-2-yl)-8,9-dihydro-7H-1,3-dioxolo-[4,5-h][2,3]benzodiazepine]: the melting point fell in the range of 165 to 167 °C. `Cc1nc(N2N=C(c3ccc(N)cc3)c3cc4c(cc3CC2C)OCO4)sc1C` (racemic) [Example 65, (±)-5-(4-Aminophenyl)-8-methyl-7-(4,5-dimethyl-thiazol-2-yl)-8,9-dihydro-7H-1,3-dioxolo-[4,5-h][2,3]benzodiazepine] registered a melting point of 240 to 242 °C.

`CC1Cc2cc3c(cc2C(c2ccc(N)cc2)=NN1c1nc(-c2ccccc2)cs1)OCO3` (racemic) [Example 66, (±)-5-(4-Aminophenyl)-7-(4-phenyl-thiazol-2-yl)-8-methyl-8,9-dihydro-7H-1,3-dioxolo-[4,5-h][2,3]benzodiazepine] registered a melting point of 221 to 223 °C. `CCOC(=O)c1csc(N2N=C(c3ccc(N)cc3)c3cc4c(cc3CC2C)OCO4)n1` (racemic) [Example 67, (±)-5-(4-Aminophenyl)-7-(4-ethoxycarbonyl-thiazol-2-yl)-8-methyl-8,9-dihydro-7H-1,3-dioxolo-[4,5-h][2,3]benzodiazepine]: the melting point lay within 251 to 252 °C. In the case of `CC1Cc2cc3c(cc2C(c2ccc(N)cc2)=NN1C1=NCCS1)OCO3` (racemic) [Example 68, (±)-5-(4-Aminophenyl)-7-(4,5-dihydro-thiazol-2-yl)-8-methyl-8,9-dihydro-7H-1,3-dioxolo-[4,5-h][2,3]benzodiazepine], the melting point is 145 to 150 °C. Molecule `CC1Cc2cc3c(cc2C(c2ccc(N)cc2)=NN1C1=NC(=O)CS1)OCO3` (racemic) [Example 71, (±)-5-(4-Aminophenyl)-7-(4,5-dihydro-4-oxo-thiazol-2-yl)-8-methyl-8,9-dihydro-7H-1,3-dioxolo-[4,5-h][2,3]benzodiazepine] yielded a melting point of 218 to 220 °C.

Take `CC1SC(N2N=C(c3ccc(N)cc3)c3cc4c(cc3CC2C)OCO4)=NC1=O` (racemic) [Example 72, (±)-5-(4-Aminophenyl)-7-(4,5-dihydro-5-methyl-4-oxo-thiazol-2-yl)-8-methyl-8,9-dihydro-7H-1,3-dioxolo-[4,5-h][2,3]benzodiazepine]: the melting point lay in the range of 200 to 204 °C. To `CC1Cc2cc3c(cc2C(c2ccc(N)cc2)=NN1C1=NC(=O)CCS1)OCO3` (racemic) [Example 73, (±)-5-(4-Aminophenyl)-7-(5,6-dihydro-4-oxo-4H-1,3-thiazin-2-yl)-8-methyl-8,9-dihydro-7H-1,3-dioxolo-[4,5-h][2,3]benzodiazepine] belongs 226 to 228 °C. The molecule `Cc1cc(C2=NN(c3nccs3)C(C)Cc3cc4c(cc32)OCO4)ccc1N` (racemic) [Example 75, (±)-5-(4-Amino-3-methylphenyl)-8-methyl-7-(2-thiazolyl)-8,9-dihydro-7H-1,3-dioxolo-[4,5-h][2,3]benzodiazepine] had a melting point of 225 to 227 °C. For `COc1ccc2c(c1)C(c1ccc(N)cc1)=NN(c1nccs1)C(C)C2` (racemic) [Example 76, (±)-1-(4-Aminophenyl)-4-methyl-8-methoxy-3-(2-thiazolyl)-4,5-dihydro-3H-[2,3]benzodiazepine], the melting point is 105 to 107 °C. For the molecule `CC1Cc2ccc(Cl)cc2C(c2ccc(N)cc2)=NN1c1nccs1` (racemic) [Example 77, (±)-1-(4-Aminophenyl)-8-chloro-4-methyl-3-(2-thiazolyl)-4,5-dihydro-3H-[2,3]benzodiazepine], the melting point lay in the range of 104 to 107 °C. The molecule `Cc1csc(N2N=C(c3ccc(N)cc3)c3cc(Cl)ccc3CC2C)n1` (racemic) [Example 78, (±)-1-(4-Aminophenyl)-8-chloro-4-methyl-3-(4-methyl-thiazol-2-yl)-4,5-dihydro-3H-[2,3]benzodiazepine] displayed a melting point of 173 to 175 °C. The molecule `CC1Cc2ccc(Cl)cc2C(c2ccc(N)cc2)=NN1C1=NCCS1` (racemic) [Example 79, (±)-1-(4-Aminophenyl)-3-(4,5-dihydro-thiazol-2-yl)-8-chloro-4-methyl-4,5-dihydro-3H-[2,3]benzodiazepine] came in with a melting point of 213 to 216 °C.

In turn, `CC1Cc2ccc(Cl)cc2C(c2ccc(N)cc2)=NN1C1=NC(=O)CS1` (racemic) [Example 80, (±)-1-(4-Aminophenyl)-3-(4,5-dihydro-4-oxo-thiazol-2-yl)-8-chloro-4-methyl-4,5-dihydro-3H-[2,3]benzodiazepine] displayed a melting point of 226 to 228 °C. To `Cc1csc(N2N=C(c3ccc(N)cc3)c3cc(Cl)c(Cl)cc3CC2C)n1` (racemic) [Example 81, (±)-1-(4-Aminophenyl)-7,8-dichloro-3-(4-methyl-thiazol-2-yl)-4-methyl-4,5-dihydro-3H-[2,3]benzodiazepine] belongs 182 to 184 °C. As for `CC1Cc2cc3c(cc2C(c2ccc(N)cc2)=NN1C1=NCCO1)OCO3` (racemic) [Example 82, (±)-5-(4-Aminophenyl)-7-(4,5-dihydro-oxazol-2-yl)-8-methyl-8,9-dihydro-7H-1,3-dioxolo-[4,5-h][2,3]benzodiazepine], the melting point lay in the range of 166 to 167 °C. To `Cc1nnc(N2N=C(c3ccc(N)cc3)c3cc4c(cc3CC2C)OCO4)s1` (racemic) [Example 85, (±)-5-(4-Aminophenyl)-8-methyl-7-(5-methyl-1,3,4-thiadiazol-2-yl)-8,9-dihydro-7H-1,3-dioxolo-[4,5-h][2,3]benzodiazepine] belongs 143 to 148 °C; to `CC1Cc2cc3c(cc2C(c2ccc(N)cc2)=NN1c1nnc(C2CC2)s1)OCO3` (racemic) [Example 87, (±)-5-(4-Aminophenyl)-7-(5-cyclopropyl-1,3,4-thiadiazol-2-yl)-8-methyl-8,9-dihydro-7H-1,3-dioxolo[4,5-h][2,3]benzodiazepine], 145 to 148 °C. The molecule `CC1Cc2cc3c(cc2C(c2ccc(N)cc2)=NN1c1nnc(C(F)(F)F)s1)OCO3` (racemic) [Example 90, (±)-5-(4-Aminophenyl)-8-methyl-7-(5-trifluoromethyl-1,3,4-thiadiazol-2-yl)-8,9-dihydro-7H-1,3-dioxolo-[4,5-h][2,3]benzodiazepine] yielded a melting point of 216 to 218 °C.
